The record followed here is patent US8183383B2, “Protein tyrosine phosphatase 1B inhibitor, preparation methods and uses thereof” (Shanghai Institute of Materia Medica, Chinese Academy of …, priority 2007, dated 2012).

As usually defined, the IC50 is the midpoint of a concentration-inhibition curve.

The target in the experiment is T1, hPTP1B (Homo sapiens, UniProt P18031).
T1 construct: The catalytic structural domain of hPTP1B was expressed in E-coli system by a molecular biology protocol; made in house; host or cells: E. coli
T1 sequence (P18031 3-277 limits assumed): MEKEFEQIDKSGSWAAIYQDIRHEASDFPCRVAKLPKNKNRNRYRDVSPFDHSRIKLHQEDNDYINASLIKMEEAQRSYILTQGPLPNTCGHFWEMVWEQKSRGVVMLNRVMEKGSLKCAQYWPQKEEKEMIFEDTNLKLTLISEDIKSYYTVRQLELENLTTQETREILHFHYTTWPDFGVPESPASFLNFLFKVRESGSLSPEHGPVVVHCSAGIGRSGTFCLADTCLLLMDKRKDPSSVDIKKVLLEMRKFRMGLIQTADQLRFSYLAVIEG
The experiment can be described thus: PTP1B inhibition test (pNPP hydrolysis, absorption at 410 nm). The format is biochemical. Conditions: recombinant hPTP1B catalytic domain 40 nM, 2 mM pNPP, pH 7.0, 2% DMSO; read-out: IC50(μM), inhibitory activity of the test compounds against PTP1B. An excerpt: 1) Test principle: The catalytic structural domain of hPTP1B was expressed in E-coli system by a molecular biology protocol. The purified hPTP1B recombinant protein can hydrolyze the phosphoester linkage of the pNPP substrate to obtain a product which has a strong light absorption at 410 nm. Therefore, the variation of the enzyme activity and the inhibitory activity of a compound against the enzyme can be observed by directly monitoring the changes in the light absorption at 410 nm. A typical activity assay system is as follows: 50 mM Mops, PH 7.0, 1 mM EDTA, 2 mM DTT, 2 mM PNPP, 2% DMSO, 40 nM hPTP1B.
2) Measuring Index: The light absorption was dynamically measured at 410 nm for 3 min. The slope of the first-order reaction of the dynamic curve thereof was considered as the activity index of the enzymes.
3) Measurement: • 1. 1 mg sample was dissolved in 200 μL DMSO. To each wall of the A2-H11 of a 96-wells polypropylene plate, 20 μL of the solution was added, followed by addition of 80 μL DMSO. The plate was used as mother plate. • 2. To each corresponding wall of a 96-wells polypropylene plate, 2 μL of sample was added with a Biomek 2000 automation workstation. The plate was used as daughter plate for screening. • 3. To each wall of A1-D1 and E12-H12, 2 μL, DMSO was added. These walls were regarded as 100% of enzyme activity for control. • 4. To each wall of A12-D12 and E1-H1, 2 μL positive control with different concentrations (four concentrations prepared by double-fold dilution from […]) was added respectively. • 5. To each wall of A1-H12, 88 μL Assay mix was added respectively. • 6. To each wall of A1-H12, 10 μL hPTP1B was added respectively. • 7. The light absorption was measured at 410 nm for 3 min on a SpectraMAX 340 spectrometer. • 8. Exporting the output into a TXT file, and opening the file with Excel. The average of the Vmax values of A1-D1 and E12-H12 was considered as 100% of enzyme activity.
4) Results: The screening results were the % inhibitory rate against the enzyme when the compound concentration was 20 μg/mL. 1050 value was calculated according to a conventional screening when the inhibitory rate exceeded 50%. The […] value of the positive control, 4-[4-(4-oxalyl-phenoxymethyl)-benzyloxy]-phenyl-oxo-acetic acid, is 5.4 μM [Christopher T. Seto, et al. J. Med. Chem., 2002, 45, 3946-3952].
For `CCOC(=O)/C(C)=C\C(C)=C\c1csc([C@H](Cc2ccc(OCc3ccccc3)cc2)NC(=O)C2CCN(C)CC2)n1` [WY587s], the IC50 was more than 35 µM.
Regarding `CC(=C\c1csc([C@H](Cc2ccc(OCc3ccccc3)cc2)NC(=O)C2CCCCC2)n1)/C=C(\C)C(=O)O` [WY544-2], the IC50 was found to be 11.3 µM.
The figure for `CCOC(=O)/C(C)=C\C(C)=C\c1csc([C@H](Cc2ccc(OCc3ccccc3)cc2)NC(=O)N2CCC(C(=O)O)CC2)n1` [WY617a] is 6.47 µM.
Turning to `CCOC(=O)/C(C)=C\C(C)=C\c1csc([C@H](Cc2ccc(OCc3ccccc3)cc2)NC(=O)c2ccc(F)cc2)n1` [WY584s], the 50% inhibitory concentration (IC50) was more than 35 µM.
As for `CCOC(=O)/C(C)=C\C(C)=C/c1csc([C@H](Cc2ccc(OCc3ccccc3)cc2)NC(=O)C2CCCCC2)n1` [WY572-4], the IC50 amounted to 7.9 µM.
As for `CCOC(=O)/C(C)=C\C(C)=C\c1csc([C@H](Cc2ccc(OCc3ccc(F)cc3)cc2)NC(=O)C2CCCCC2)n1` [WY590h], the figure is 25.6 µM.
For the compound `CCOC(=O)/C(C)=C\C(C)=C\c1csc([C@H](Cc2ccc(OCC(=O)O)cc2)NC(=O)C2CCCCC2)n1` [WY540a], the IC50 is more than 40 µM.
On to `COC(=O)/C(C)=C\C(C)=C\c1csc([C@H](Cc2ccc(OCc3ccccc3)cc2)NC(=O)C(O)c2ccccc2)n1` (stereo partly drawn) [WY584], for which the IC50 is more than 35 µM.
With `CCOC(=O)/C(C)=C\C(C)=C\c1csc([C@H](Cc2ccc(OCc3ccccc3)cc2)NC(=O)c2ccco2)n1` [WY556s], the IC50 is more than 40 µM.
Take `C/C(=C/C(C)=C/c1csc([C@H](Cc2ccc(OCc3ccccc3)cc2)NC(=O)CC2CCCCC2)n1)C(=O)O` [WY558a]: the IC50 is 9.32 µM.
`CCOC(=O)/C(C)=C\C(C)=C\c1csc([C@H](Cc2ccccc2)NC(=O)C2CCCCC2)n1` [WY466h]: the IC50 amounted to 34.2 µM.
In the case of `C=CCOc1ccc(C[C@H](NC(=O)C2CCCCC2)c2nc(/C=C(C)/C=C(/C)C(=O)OCC)cs2)cc1` [WY522h], the IC50 amounted to 34.4 µM.
With `CCOC(=O)/C(C)=C\C(C)=C\c1csc([C@H](Cc2ccc(OCc3ccccc3)cc2)NC(=O)C(=O)COCc2ccccc2)n1` [WY638], the IC50 is 4.1 µM.
On to `CCOC(=O)/C(C)=C/C(C)=C\c1csc([C@H](Cc2ccc(OCc3ccccc3)cc2)NC(=O)C2CCCCC2)n1` [WY572-3], for which the IC50 was 8.69 µM.
For the compound `CCOC(=O)/C(C)=C/C(C)=C/c1csc([C@H](Cc2ccc(OCc3ccccc3)cc2)NC(=O)C2CCCCC2)n1` [WY572-2], the concentration for half-maximal inhibition (IC50) came out at 6.38 µM.
Take `CCOC(=O)/C(C)=C\C(C)=C\c1csc([C@H](Cc2ccc(OCc3ccccc3)cc2)NC(=O)C2CCCCC2=O)n1` (stereo partly drawn) [WY586d]: the IC50 turned out to be 8.44 µM.
As for `CCOC(=O)/C(C)=C\C(C)=C\c1csc([C@H](Cc2ccc(OCc3ccccc3)cc2)NC(=O)C(=O)C2CCC2)n1` [WY572], the IC50 was determined as 8.52 µM.
As for `CCOC(=O)/C(C)=C\C(C)=C\c1csc([C@H](Cc2ccc(OCc3ccccn3)cc2)NC(=O)C2CCCCC2)n1` [WY573h], the figure is more than 35 µM; as for `CCOC(=O)/C(C)=C\C(C)=C\c1csc([C@H](Cc2ccc(OCc3ccccc3)cc2)NC(=O)C2CCCO2)n1` (stereo partly drawn) [WY560s], more than 40 µM.
`CCOC(=O)/C(C)=C\C(C)=C\c1csc([C@H](Cc2ccc(OCc3ccccc3)cc2)NC(=O)C(=O)CO)n1` [WY548]: the IC50 was more than 35 µM.
Take `CCOC(=O)/C(C)=C\C(C)=C\c1csc([C@H](Cc2ccc(OCc3ccccc3)cc2)NC(=O)C(=O)COC)n1` [WY562]: the IC50 amounted to 10.2 µM.
For the compound `CCOC(=O)/C(C)=C\C(C)=C\c1csc([C@H](Cc2ccc(OCc3ccccc3)cc2)NC(=O)C(O)C2CCCCC2)n1` (stereo partly drawn) [WY602-2], the concentration for half-maximal inhibition (IC50) came out at 13.5 µM.
Turning to `CCOC(=O)/C(C)=C\C(C)=C\c1csc([C@H](Cc2ccc(OCc3ccccc3)cc2)NC(=O)c2ccccc2)n1` [WY566s], the IC50 was 15.2 µM.
Regarding `CCOC(=O)/C(C)=C\C(C)=C\c1csc([C@H](Cc2ccc(OCc3ccccc3)cc2)NC(=O)c2cc3ccccc3s2)n1` [WY622s], the IC50 is 25.6 µM.
As for `CCOC(=O)/C(C)=C\C(C)=C\c1csc([C@H](Cc2ccc(OCc3ccncc3)cc2)NC(=O)C2CCCCC2)n1` [WY573h4], the IC50 is more than 40 µM.
As for `CCOC(=O)/C(C)=C\C(C)=C\c1csc([C@H](Cc2ccc(OCc3cccc(F)c3)cc2)NC(=O)C2CCCCC2)n1` [WY590h3], the figure is 24.1 µM; as for `CCOC(=O)/C(C)=C\C(C)=C\c1csc([C@H](Cc2ccc(OCc3ccccc3)cc2)NC(=O)N[C@@H](Cc2ccc(OCc3ccccc3)cc2)c2nc(/C=C(C)/C=C(/C)C(=O)OCC)cs2)n1` [WY951], 6.29 µM.
The figure for `CCOC(=O)/C(C)=C\C(C)=C\c1csc([C@H](Cc2ccc(OCc3ccccc3)cc2)NC(=O)C(=O)c2ccccc2)n1` [WY594] is 6.92 µM; for `CCOC(=O)/C(C)=C\C(C)=C\c1csc([C@H](Cc2ccc(OCc3ccc4ccccc4c3)cc2)NC(=O)C2CCCCC2)n1` [WY622h] it is more than 35 µM.
With `CCOC(=O)/C(C)=C\C(C)=C\c1csc([C@H](Cc2ccc(-c3ccccc3)cc2)NC(=O)C2CCCCC2)n1` [WY542h], the IC50 is more than 40 µM.
As for `CCCCC(=O)C(=O)N[C@@H](Cc1ccc(OCc2ccccc2)cc1)c1nc(/C=C(C)/C=C(/C)C(=O)OCC)cs1` [WY574], the IC50 is 8.58 µM.
Consider `CCOC(=O)/C(C)=C\C(C)=C\c1csc([C@H](Cc2ccc(OCc3ccc(C#N)cc3)cc2)NC(=O)C2CCCCC2)n1` [WY597h], for which the IC50 is more than 35 µM.
For `CCOC(=O)/C(C)=C\C(C)=C\c1csc([C@H](Cc2ccc(O)cc2)NC(=O)C2CCCCC2)n1` [WY482h], the half-maximal inhibitory concentration (IC50) came out at 27.8 µM.
As for `CCOC(=O)/C(C)=C\C(C)=C\c1csc([C@H](Cc2ccc(OCc3ccccc3)cc2)NC(=O)Cc2ccccc2)n1` [WY580s], the figure is 23.1 µM; as for `CCOC(=O)COc1ccc(C[C@H](NC(=O)C2CCCCC2)c2nc(/C=C(C)/C=C(/C)C(=O)OCC)cs2)cc1` [WY568h], more than 40 µM.
In the case of `CCOC(=O)/C(C)=C\C(C)=C\c1csc([C@H](Cc2ccc(OC)cc2)NC(=O)C2CCCCC2)n1` [WY496h], the IC50 was found to be 30.1 µM.
As to `CCOC(=O)/C(C)=C\C(C)=C\c1csc([C@H](Cc2ccc(OCc3ccccc3)cc2)NC(=O)C(=O)C2CCCCC2)n1` [WY600], the IC50 is 3.44 µM.
On to `CCOC(=O)/C(C)=C\C(C)=C\c1csc([C@H](Cc2ccc(OCc3ccsc3)cc2)NC(=O)C2CCCCC2)n1` [WY578h], for which the IC50 worked out at 12 µM.
The figure for `CCOC(=O)/C(C)=C\C(C)=C\c1csc([C@H](Cc2ccc(OCc3ccccc3F)cc2)NC(=O)C2CCCCC2)n1` [WY592h2] is 31.8 µM; for `CCOC(=O)/C(C)=C\C(C)=C\c1nc([C@H](Cc2ccc(OCc3ccccc3)cc2)NC(=O)C2CCCCC2)sc1C` [WY586z] it is 4.86 µM; for `CCOC(=O)/C(C)=C\C(C)=C\c1csc([C@H](Cc2ccc(OCc3ccccc3)cc2)NC(=O)COC(C)=O)n1` [WY562s] it is more than 40 µM.
As to `CCOC(=O)/C(C)=C\C(C)=C\c1csc([C@H](Cc2ccc(O)c(Cc3ccccc3)c2)NC(=O)C2CCCCC2)n1` [WY572t], the IC50 turned out to be 4.47 µM.
As to `CCOC(=O)/C(C)=C\C(C)=C\c1csc([C@H](Cc2ccc(OCc3ccccc3)cc2)NC(=O)C2CC2)n1` [WY530s], the IC50 was more than 35 µM.
Take `C/C(=C/C(C)=C/c1nc([C@H](Cc2ccc(OCc3ccccc3)cc2)NC(=O)C2CCCCC2)sc1-c1ccccc1)C(=O)O` [WY620a]: the IC50 was 4 µM.
The figure for `CCOC(=O)/C(C)=C\C(C)=C\c1csc([C@H](Cc2ccc(OCc3ccccc3)cc2)NC(=O)C(F)(F)F)n1` [WY558f] is more than 35 µM; for `CCOC(=O)/C(C)=C\C(C)=C\c1csc([C@H](Cc2ccc(OCc3ccccc3)cc2)NC(=O)C(=O)C2CCCC2)n1` [WY586] it is 11 µM; for `CCOC(=O)/C(C)=C\C(C)=C\c1csc([C@H](Cc2ccc(OCc3ccccc3)cc2)NC(=O)C(=O)c2ccc(F)cc2)n1` [WY612] it is 5.13 µM.
In the case of `CCOC(=O)/C(C)=C\C(C)=C\c1csc([C@H](Cc2ccc(OCc3ccccc3)cc2)NC(=O)C(=O)C2CC2)n1` [WY558], the IC50 is 8.14 µM.
